Experimental data: US20130143969A1 (THE OHIO STATE UNIVERSITY, priority 2010, published 2013)

How the values were obtained:
[1] = Stability of curcumin in reconstituted solution in auto-sampler at 4° C; assay type: physicochemical; conditions: auto-sampler 4° C, up to 8 hours
Source text: Therefore, all mouse blood and plasma samples have to be processed on ice to avoid potential degradation for its pharmacokinetic studies.

[2] = Solubility of curcumin in different PEGs and temperatures; assay type: physicochemical
Experimental: The pharmaceutical compositions may be prepared by dissolving solid curcumin in an excipient. […] In one embodiment, the mixture is stirred at an elevated temperature until a homogenous solution is obtained. For example, the mixture may be heated to a temperature within the range from about 30° C. to about 150° C.; from about 50° C. to about 120° C.; from about 60° C. to about 100° C. […]

[3] = system: DNMT1; assay: Western blot of DNMT1 protein in leukemia cells; assay type: cell-based
Experimental: (§1) Cell Cycle and Apoptosis Analysis: MV4-11, ML-1, HL-60 and K562 leukemia cell lines were cultured in RPMI medium (VWR International, Inc., West Chester, Pa.) supplemented with 10% fetal bovine serum (Invitrogen, Carlsbad, Calif.) and 1% (v/v) penicillin/streptomycin (Invitrogen Life Technologies; Carlsbad, Calif.) antibiotic solution at 37° C. in an incubator under 5% CO2 atmosphere. […] The cell cycle and apoptosis of MV4-11 cells was analyzed on a BD FACS Calibur (Beckman Coulter, Fullerton, Calif.) according to the standard protocol provided by the manufacturer.
(§2) Cells or tumor tissues were homogenized and lysed in ice-cold lysis buffer (20 mM, pH 7.0 HEPES, 150 mM NaCl, 0.1% NP40 supplemented with 1 mM β-glycerophosphate, 1 mM Na3VO4, 1 mM NaF, 1 mM benzamide and 1 mM phenylmethylsulfonyl fluoride) with protease inhibitors (Protease Inhibitor cocktail Set III, Calbiochem-Novabiochem Corporation, La Jolla, Calif.), and incubated on ice for 20 mM. […] The immunoblotted proteins were detected by ECL reagent (GE Healthcare Bio-Sciences Corp., Piscataway, N.J.).

[4] = system: HL-60 cells; assay: Cell viability / anti-proliferation; assay type: cell-based
[5] = system: MV4-11 cells; assay: Apoptosis analysis; assay type: cell-based; conditions: 10 μM curcumin
Experimental: as §1, with “atmosphere. For the ex-vivo studies, mononuclear cells obtained from bone marrow (BM) of patient with AML were prepared by Ficoll-Hypaque (Nygaard) gradient centrifugation and cultured with serum-free expansion medium (SFEM) (StemCell technologies, Vancouver, BC) supplemented with GM-CSF (50 ng/ml), IL-3 (20 ng/ml), IL-6 (20 ng/ml) and SCF ([…]).” for “atmosphere.”

[6] = system: MV4-11 cells; assay: Cell viability / anti-proliferation; assay type: cell-based
[7] = system: DNMT3a; assay: DNMT3a mRNA in MV4-11 engrafted tumor tissues; assay type: in vivo; conditions: MV4-11 engrafted mice, curcumin i.p. 100 mg/kg
Experimental: (§3) Quantitative RT-PCR was used to quantify the mRNA levels of DNMT1, DNMT3a, DNMT3b, p15INK4B and p21. Total RNA was extracted with Trizol reagent (Invitrogen, Carlsbad, Calif.) and reverse transcribed by reverse transcriptase (Invitrogen). Quantitative real-time PCR reactions were performed in triplicate using Taqman gene expression assay (Applied Biosystems) with an ABI prism 7700 detector (Applied Biosystems). The target gene values were normalized to the values of internal control GAPDH or 18 S, and expressed as relative percent change (100×2^(˜ΔΔCt)) over non-treated samples.
Female athymic nu/nu mice (4-6 weeks old, 18-22 g) were obtained from Charles River Laboratory (Wilmington, Mass.) and acclimated for 1 week in a pathogen-free enclosure before start of study. Animals were given sterile rodent chow and water ad libitum and were housed in sterile filter-top cages with 12 hour light/dark cycles. All experiments were conducted in accordance with the guidelines of the Association for Assessment and Accreditation of Laboratory Animal Care International. […] Tumor volume was calculated by using the equation V=2×A×B^2/3, where A is the longer (horizontal as width) diameter (mm) and B is the shorter (perpendicular as depth) diameter (mm) and expressed in cubic millimeter. […]

[8] = system: DNMT1; assay: DNMT1 mRNA and protein in MV4-11 engrafted tumor tissues; assay type: in vivo; conditions: MV4-11 engrafted mice, curcumin i.p. 100 mg/kg
Experimental: Cells or tumor tissues were homogenized and lysed in ice-cold lysis buffer (20 mM, pH 7.0 HEPES, 150 mM NaCl, 0.1% NP40 supplemented with 1 mM β-glycerophosphate, 1 mM Na3VO4, 1 mM NaF, 1 mM benzamide and 1 mM phenylmethylsulfonyl fluoride) with protease inhibitors (Protease Inhibitor cocktail Set III, Calbiochem-Novabiochem Corporation, La Jolla, Calif.), and incubated on ice for 20 mM. The lysate was centrifuged at 12,000 g for […] at 4° C. Proteins in the supernatants were resolved on 4-15% SDS-polyacrylamide gradient gels, and then transferred onto nitrocellulose membranes, incubated with appropriate antibodies and subjected to Western blotting. The immunoblotted proteins were detected by ECL reagent (GE Healthcare Bio-Sciences Corp., Piscataway, N.J.).
as §3, with “samples. […]” for “samples.”

[9] = system: p15^INK4B; assay: Quantitative RT-PCR of p15INK4B mRNA in leukemia cells; assay type: cell-based; conditions: for increase of p15INK4B expression level: MV4-11 cells, 10 μM curcumin
Experimental: as §1, with “atmosphere. For the ex-vivo studies, mononuclear cells obtained from bone marrow (BM) of patient with AML were prepared by Ficoll-Hypaque (Nygaard) gradient centrifugation and cultured with serum-free expansion medium (SFEM) (StemCell technologies, Vancouver, BC) supplemented with GM-CSF (50 ng/ml), IL-3 (20 ng/ml), IL-6 (20 ng/ml) and SCF ([…]).” for “atmosphere.”
as §3

[10] = system: K562; assay: Cytotoxicity; assay type: cell-based; conditions: Homo sapiens
[11] = system: DNMT1; assay: Quantitative RT-PCR of DNMT1 transcripts in MV4-11 cells; assay type: cell-based; parameters: dose or concentration left out as unconfirmed; conditions: curcumin
Experimental: as §1, with “atmosphere. For the ex-vivo studies, mononuclear cells obtained from bone marrow (BM) of patient with AML were prepared by Ficoll-Hypaque (Nygaard) gradient centrifugation and cultured with serum-free expansion medium (SFEM) (StemCell technologies, Vancouver, BC) supplemented with GM-CSF (50 ng/ml), IL-3 (20 ng/ml), IL-6 (20 ng/ml) and SCF ([…]).” for “atmosphere.”
as §3, with “Total RNA was extracted with Trizol reagent (Invitrogen, Carlsbad, Calif.) and reverse transcribed by reverse transcriptase (Invitrogen).” left out

[12] = system: DNMT3b; assay: Quantitative RT-PCR of DNMT3b mRNA in MV4-11 cells; assay type: cell-based; conditions: 10 μM
Experimental: as §1, with “atmosphere. For the ex-vivo studies, mononuclear cells obtained from bone marrow (BM) of patient with AML were prepared by Ficoll-Hypaque (Nygaard) gradient centrifugation and cultured with serum-free expansion medium (SFEM) (StemCell technologies, Vancouver, BC) supplemented with GM-CSF (50 ng/ml), IL-3 (20 ng/ml), IL-6 (20 ng/ml) and SCF ([…]).” for “atmosphere.”
as §3, with “Total RNA was extracted with Trizol reagent (Invitrogen, Carlsbad, Calif.) and reverse transcribed by reverse transcriptase (Invitrogen).” left out

[13] = system: DNMT3b; assay: Western blot of DNMT3b protein in MV4-11 cells; assay type: cell-based
Experimental: as §1, §2

[14] = rats, orally administered; cited from earlier work
[15] = system: DNMT3a; assay: Quantitative RT-PCR of DNMT3a mRNA in MV4-11 cells; assay type: cell-based; conditions: 10 μM
Experimental: as §1, with “atmosphere. For the ex-vivo studies, mononuclear cells obtained from bone marrow (BM) of patient with AML were prepared by Ficoll-Hypaque (Nygaard) gradient centrifugation and cultured with serum-free expansion medium (SFEM) (StemCell technologies, Vancouver, BC) supplemented with GM-CSF (50 ng/ml), IL-3 (20 ng/ml), IL-6 (20 ng/ml) and SCF ([…]).” for “atmosphere.”
as §3, with “Total RNA was extracted with Trizol reagent (Invitrogen, Carlsbad, Calif.) and reverse transcribed by reverse transcriptase (Invitrogen).” left out

Q: What does the source list for `COc1cc(/C=C/C(=O)CC(=O)/C=C/c2ccc(O)c(OC)c2)ccc1O` [curcumin]?
A: % of original concentrations remaining [1]: > 85%; amount of curcumin that can dissolve ([2]; in 1 mL PEG 400 at 100° C): about 200 mg; Final Conc. 100° C. ([2]; solubility in PEG 200, 100° C): 193.1 mg/mL; Final Conc. 100° C. ([2]; solubility in PEG 300, 100° C): 252.3 mg/mL; Final Conc. 60° C. ([2]; solubility in PEG 400, 60° C): 131.4 mg/mL; Final Conc. 100° C. ([2]; solubility in PEG 400, 100° C): 195 mg/mL; Final Conc. @ RT ([2]; solubility in PEG 400, RT): 42.7 mg/mL; Final Conc. 100° C. ([2]; solubility in PEG 500, 100° C): 218.9 mg/mL; Final Conc. 60° C. ([2]; solubility in PEG 600, 60° C): 136.0 mg/mL; Final Conc. 100° C. ([2]; solubility in PEG 600, 100° C): 241.8 mg/mL; Final Conc. @ RT ([2]; solubility in PEG 600, RT): 42.0 mg/mL; DNMT1 protein level decrease ([3]; ML-1 cells): 50%; DNMT1 protein level ([3]; MV4-11 cells, 10 μM): completely depleted; cell viability decreased to ([4]; HL-60 cells (FIG. 13B)): 60-70%; IC50 ([4]; Homo sapiens, HL-60): 10 to 15 µM; portion of apoptotic cells [5]: ~30%; IC50 ([6]; Homo sapiens, MV4-11): 10 to 15 µM; cell viability decreased to ([6]; MV4-11 cells (FIG. 13B)): 60-70%; mRNA level of DNMT3a in engrafted tissues [7]: significantly decreases; mRNA level of DNMT1 in engrafted tissues [8]: significantly decreases; protein level of DNMT1 in engrafted tissues, decrease [8]: 50%; p15INK4B reactivation ([9]; AML primary blast cells): reactivated; p15INK4B reactivation ([9]; HL-60 leukemia cells): reactivated; increase of p15INK4B expression level ([9]; 48 hours): approximately 12 fold; increase of p15INK4B expression level ([9]; 72 hours): ~43 fold; IC50 [10]: 10.4 µM; decrease in the level of DNMT1 transcripts compared to untreated control ([11]; 48 hours): 70%; decrease in the level of DNMT1 transcripts compared to untreated control ([11]; 72 hours): 90%; DNMT3b mRNA level, % of the control ([12]; 48 h): 40%; DNMT3b mRNA level, % of the control ([12]; 72 h): 10%; DNMT3b protein level reduction [13]: 50%; elimination half-life (T1/2) [14]: 1.7 ± 0.5 h; DNMT3a mRNA level, % of the control ([15]; 48 h): 50%; DNMT3a mRNA level, % of the control ([15]; 72 h): 20%
